The source of these data is patent US20070161609A1, “Use of mitochondrially targeted antioxidant in treatment and prevention of drug-induced liver disease” (priority 2006, published 2007).

Data set [1] has as its system immortalized hepatocytes (Fa2N-4 or Ea1C-35). Briefly: Reactive oxygen species in immortalized hepatocytes. Conditions: for ROS formation: hepatocytes intoxicated with e.g. paracetamol (10 mM for 2 hours), DDC or BSO, simultaneous treatment at EC50 concentrations. It counts as cell-based.
Description: Tested hepatocytes are grown in 96-well plates in culture medium (DMEM supplemented with 10% FCS, Gibco) to 80% confluency in the presence of paracetamol, subsequently washed with HBSS and incubated in the dark with DHE (10-50 μM) for 10 minutes at 37° C. Cells are then washed twice with Hank's balanced salt solution (HBSS, Gibco) to remove excess dye. Fluorescence is monitored in a fluorescence microscope (Olympus, Hamburg, Germany).
To determineDCF fluorescence in a microplate reader (Tecan, Crailsheim, Germany), immortalized hepatocytes are grown in 96-well plates to 80% confluency in presence of paracetamol. The cells are then washed twice with Hank's balanced salt solution (HBSS, Gibco) and incubated in the dark with CM-H2DCFDA (8.5 μM) dissolved in HBSS containing N-co-nitro-L-arginine methyl ester (L-NAME, 10 μM) for 10 minutes at 37° C. to prevent the formation of NO. After several washes with HBSS to remove excess dye, fluorescence is monitored by using 480 nm excitation and 540 nm emission wavelength. DCF fluorescence is standardized to the number of viable cells using the Alamar Blue test according to the manufacturer's instructions (Biosource, Nivelles, Belgium). […] The absorbance is then measured at the wavelength of 580 nm.
Optionally, ROS production can be assessed by flow cytometric analysis of CM-H2DCFDA stained cells. The cells intoxicated with paracetamol are detached and harvested by trypsinisation, collected by centrifugation and resuspended in HBSS at a concentration of 1×10^6 cells/ml. Cells are then loaded with 8.5 μM CM-H2DCFDA for 15 minutes in the dark at 37° C. before stimulation. The DCF fluorescence is monitored by analyzing 10,000 cells using 480 nm excitation and 540 nm emission wavelengths in a flow cytometer (Partec, Muenster, Germany).
The hepatocytes are then washed once with HBSS (Hanks' Balanced Salt Solution, Gibco) and incubated with MitoQ in concentration range of 0.5 to 10 μM or the respective amount of DMSO (Sigma). After 15 min DCF is added to the cells (final concentration of 8 μM) and cells are incubated with the dye for 10 min. After loading the media is removed and fresh HBSS is added containing MitoQ and CoCl2 (100 μM).
After 3 subsequent washing the cells are equilibrated in plates containing 1 ml of 50 mmol/L HEPES (pH 7.4), 135 mmol/L NaCl, 1 mmol/L CaCl2, 1 mmol/L MgCl2, 5 mmol/L KCl, 5.5 mmol/L glucose, and 5 μmol/L lucigenin as the electron acceptor. The light reaction between superoxide and lucigenin is detected using a chemiluminescence reader (Lumistar, BMG laboratories, Germany). The chemiluminescence signal is expressed as average counts per minute and normalized to cell number as determined by cell counter (Casy Technology Instrument, Schärfe-System, Germany).
The conditions of data set [2]: cited from earlier work; for gross signs of toxicity: fed in drinking water two or three days, 500 μM or 1 mM MitoQ or MitoS, 500 μM MitoVit E; for safety of long term feeding to mice: long term basis, potentially therapeutically effective concentrations within brain, heart, liver, muscle.
In data set [3] the test system is mitochondria within isolated cells. To be noted: in vitro; cited from earlier work.
Data set [4] concerns carprofen- and DDC-intoxicated mice livers. Briefly: Hepatocyte damage in mouse liver upon 3 days exposure to carprofen in combination with DDC (histology). It counts as in vivo. Conditions: carprofen 5 mg/kg + DDC 0.1% in diet, MitoQ 300 nmol/animal in PBS/1% DMSO. An excerpt:
Controls receive 300 μPBS only.

The subject of data set [5] is paracetamol-intoxicated mice livers.
Description: Mice (8 weeks old) are fed a standard diet. Paracetamol is administered by oral gavage (500 mg/kg of animal). Carprofen is given by intraperitoneal injection (three times every 24 hours) in combination with 0.1% DDC which is included in the diet.
Mice are sacrified at different time-points of intoxication by cervical dislocation and the livers are either immediately snap-frozen in methylbutane precooled with liquid nitrogen for immunofluorescence or fixed in 4% buffered formaldehyde for routine histology and immunohistochemistry.
To evaluate the impact of the antioxidants according to the invention on regression of morphological alterations in early stages of paracetamol-intoxicated mice livers, a group of animals are treated on day one with MitoQ (a mixture of MitoQuinol [10-(3,6-dihydroxy-4,5-dimethoxy-2 methylphenyl)decyl]triphenylphosphonium bromide and MitoQuinone [10-(4,5-dimethoxy-2-methyl-3,6-dioxo-1,4-cyclohexadien-1-yl)decyl]-triphenylphosphonium bromide (provided by Prof. Albin Hermetter, TU Graz, AT), diluted with PBS/1% DMSO in three different concentrations (200 nM, 300 nM and 400 nM) intraperitoneally with maximum administration volume 100 μl (controls receive 100 μl PBS/1% DMSO only). For injections, MitoQ is dissolved in PBS supplemented with sufficient DMSO (preferably 1%) to maintain solubility of antioxidants. Intraperitoneal or i.v. (tail vein) injections are given to pairs of mice and compared with vehicle-injected controls. These correspond to maximum tolerated dose of 20 mg of MitoQ/kg/day (750 nmol) according to Smith R. A. J et al., 2003, PNAS, 100 (9): 5407-5412.
On the second day MitoQ treatment is continued, additionally mice are intoxicated with 500 mg/kg paracetamol diluted with PBS po (maximum administration volume is 300 μl).
Data set [6] relates to hemoxygenase 1 (HO-1). Briefly: Western blot of hemoxygenase 1 expression in liver extracts of intoxicated mice. Conditions: densitometry. It counts as in vivo, mouse. Here is the method:
To evaluate hemoxygenase 1 (HO-1) protein expression know to be induced by oxidative stress (Suematsu M. and Ishimura Y., 2000, Hepatology, 31(1): 3-6) standard western blot analysis is performed using protein extracts derived from paracetamol- (or carprofen) intoxicated mice treated simultaneously for 1day (or 3 days) with MitoQ (diluted in 1% DMSO in PBS), vitamin E or just vehicle itself (see protocols in Example 3).
(§1) Liver tissues are resuspended in ice-cold RIPA-buffer (50 mM Tris-HCl pH 7.4, 250 mM NaCl, 0.1% SDS, 1% deoxycholate, 1% NP-40) supplemented with 2 μg/ml leupeptin, 2 μg/ml pepstatin, 2 μg/ml aprotinin, 1 mM phenylmethylsulfonylfluoride (PMSF), and 2 mM dithiothreitol followed by homogenization through sonication (2 bursts of 5 seconds) on ice. After incubation for 20 minutes on ice, the lysates are cleared by two centrifugational steps in a microcentrifuge at 13,000 rpm for 15 minutes at 4° C. and the supernatants are collected. Protein concentrations are determined by the Bradford assay (Biorad) using bovine serum albumin as a standard. Equal amounts of protein (typically 10-30 μg) are separated on a 12% SDS-PAGE gel and transferred electrophoretically to a polyvinylidene diflouride (PVDF) membrane (Hybond-P, Amersham) through Semidry-blotting (TE 70, Amersham). […]

Data set [7] relates to DDC-intoxicated mouse liver. Briefly: Hepatocyte damage in mouse liver upon 3 days exposure to DDC (0.1%), MitoQ versus vitamin E (histology). To be noted: MitoQ 12 mg/kg peritoneally, vitamin E 100 mg/kg subcutaneously.
Description: FIGS. 3a and 3b: Comparison of MitoQ (12 mg/kg of animal;given peritoneally) and vitamin E (100 mg/kg of animal, applied subcutneously) effect on the degree of hepatocyte damage in mouse liver upon short term (3 days) exposure to DDC (0.1%)
Controls receive 300 μPBS only. Vitamin E is given subcutaneously in the same intervals as MitoQ at doses of 40 to 100 mg/kg dissolved in corn oil/PBS (1:5).
The subject of data set [8] is alanine- and aspartate aminotransferase. Briefly: Serum liver enzymes (blood parameters) in intoxicated animals. It counts as in vivo, mouse. Conditions: compared to intoxicated control group.
Data set [9] has as its system mice intoxicated with valproic acid. The experiment in a line: Long term (three weeks) valproic acid intoxication, liver histology. Conditions: valproic acid 0.71% weight/volume for three weeks; 1.25 mg/kg daily i.p. or i.v.; compared to controls. The format is in vivo, mouse. The method, then: Chronic liver damage can be assessed in mice intoxicated with valproate (0.71% weight/volume) for up to 21 days when fatty degeneration of hepatocytes, activation of Kupffer cells, inflammation and hepatocyte necrosis can be detected (Raza M. 2000, Int J Tissue React., 22(1): 15-21).
In long term experiments by using mice intoxicated for three weeks with valproic acid (0.71% weight/volume), the presence (or absence) of cell damage in liver samples of treated animals is determined and compared to the corresponding control groups of animals.

Data set [10] deals with fatty acid binding protein (FABP). Briefly: Western blot of fatty acid binding protein in liver extracts of intoxicated mice. The format is in vivo, mouse. To be noted: drug-intoxicated (paracetamol or carprofen) animals; versus non intoxicated vehicle controls. Here is the method:
as §1, with “Amersham). The membrane is blocked for 1 hour at room temperature in blocking solution [5% milk in TBS-T (25 mM Tris-HCl pH 7.4, 137 mM NaCl, 3 mM KCl, comprising 0.1% Tween-20)] and incubated with the primary antibody solution (prepared in TBS-T/1% milk) at 4° C. overnight with agitation.” for “Amersham).”
Furthermore, the protein expression level(s) of fatty acid binding protein (FABP) representing a sensitive marker for hepatocyte damage (Monbaliu D. et al., 2005, Transplant Proc. 37(1):413-416) is determined.

Setting [11] is: paracetamol 500 mg/kg, 1 day, MitoQ 300 nmol/animal in PBS/1% DMSO, simultaneous, 24 hours pretreatment.
Setting [12] is: concentration used for treatment of intoxicated immortalized hepatocytes, read-out: EC50.

Entries after “also recorded” stand apart in the source; their conditions may differ. Where two headings read alike, the source gives them in different places.

Regarding `CCOC(=O)C1=C(C)NC(C)=C(C(=O)OCC)C1C` [DDC], the EC50 in data set [1] (intoxicant, hepatocytes incubated up to 72 hours in culture medium (DMEM and 10% FCS)) was 50 μg/ml of medium.
Take `Cc1c(C)c2c(c(C)c1O)CCC(C)(CC[P+](c1ccccc1)(c1ccccc1)c1ccccc1)O2` (stereo not drawn) [MitoVit E, [2-(3,4-dihydro-6-hydroxy-2,5,7,8-tetramethyl-2H-1-benzopyran-2-yl)ethyl]-triphenylphosphonium bromide]: in [2] (500 μM in drinking water), the maximum tolerated dose was 60 mg/kg/day. Also, in data set [2], the “gross signs of toxicity” value was “without any gross signs of toxicity” and the “safety of long term feeding to mice” value is “could be fed safely”. Moreover, the accumulation by mitochondria entry in data set [3] is “rapidly and selectively accumulated”.
In the case of `C[P+](c1ccccc1)(c1ccccc1)c1ccccc1` [TPMP, reference compound], the “safety of long term feeding to mice” value in data set [2] is reported as “could be fed safely”.
As for MitoQ, in data set [4], the inflammatory cells entry was “absent” and the liver morphology result was “restores normal liver morpohology”. Also, in [2], the “gross signs of toxicity” value was “without any gross signs of toxicity” and the “safety of long term feeding to mice” value was “could be fed safely”. Moreover, in data set [5] (setting [11]), the “blood congestion in the sinusoids” value is “reduces blood congestion in the sinusoids” and the necrotic hepatocytes entry is “only few single necrotic cells are seen”. For the same compound, the “liver architecture (strands of hepatocytes bordered by sinusoids)” value in [5] (short-term experiments overall (paracetamol; carprofen + DDC), compared to vitamin E or untreated animals) is reported as “is again visible”. The HO-1 protein expression entry in data set [6] (compared to paracetamol intoxicated group of animals) is “significant reduction”. Also, the HO-1 protein expression entry in data set [6] (compared to vitamin E treated mice) is “less significant reduction”. The concentration for a half-maximal effect (EC50) in data set [1] (setting [12]) came to 1 µM. For the same compound, in data set [1], the ROS formation entry is reported as “significant reduction”. Also, the accumulation by mitochondria entry in data set [3] is “rapidly and selectively accumulated”. In addition, in data set [7], the inflammatory cells entry is recorded as “absent”, the liver morphology entry is recorded as “restores normal liver morphology” and the “protoporphyrin accumulation in the bile ducts” value was “persists”. The “reduction of liver damage by serum liver enzymes (alanine- and aspartate aminotransferase)” value in data set [8] is given as “significant reduction”. Also, the “degree of cell damage” value in [9] was “greatly reduced”. In data set [10], the FABP protein expression entry is “reaches almost control mice FABP protein expression values; also recorded: reach almost control mice FABP expression values”.
For the compound vitamin E [reference compound], in [1] (setting [12]), the 50% effective concentration (EC50) worked out at 10 µM. Moreover, the ROS formation entry in [1] was “significant reduction”. Moreover, in data set [7], the inflammatory cells result is reported as “still present in the periportal area”, the liver morphology entry is on record as “only partially restores normal liver morphology” and the “protoporphyrin accumulation in the bile ducts” value is “persists”. Further, the “reduction of liver damage by serum liver enzymes (alanine- and aspartate aminotransferase)” value in data set [8] is on record as “less significant effect”.
